The target of test [1] is T1, NPY Y1 (Homo sapiens, UniProt P25929).
T1 construct: SK-N-MC cells endogenously expressing Y1; host or cells: SK-N-MC
T1 sequence (P25929 1-384): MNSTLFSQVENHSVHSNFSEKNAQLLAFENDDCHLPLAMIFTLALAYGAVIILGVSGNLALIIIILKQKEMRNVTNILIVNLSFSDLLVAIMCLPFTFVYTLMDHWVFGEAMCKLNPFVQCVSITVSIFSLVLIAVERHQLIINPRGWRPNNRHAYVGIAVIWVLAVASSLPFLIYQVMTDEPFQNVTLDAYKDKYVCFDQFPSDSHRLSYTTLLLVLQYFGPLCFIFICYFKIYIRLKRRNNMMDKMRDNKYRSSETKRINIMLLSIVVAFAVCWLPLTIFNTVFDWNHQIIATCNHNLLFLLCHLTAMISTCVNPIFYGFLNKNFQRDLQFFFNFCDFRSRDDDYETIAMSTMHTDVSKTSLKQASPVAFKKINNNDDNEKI
In words: Receptor autoradiography binding, 125I-hPYY displacement on SK-N-MC cell membrane pellet sections. Conditions: for Displacement of 125I-hPYY (FIG. 2): SK-N-MC cell line, competition experiments; for IC50: SK-N-MC membrane pellet sections, 125I-hPYY, read-out: Binding affinity (IC50 nM) Y1 (SK-N-MC). How it is done:
Testing of Peptides 1-11 was carried out using specific cell lines. The neuroepithelioma cell line SK-N-MC endogenously expressing the NPY Y1 receptor was obtained from ATCC (HTB-10; LGC Standards, Teddington, Middlesex, UK). Cells were cultured at 37° C. and 5% CO2 in MEM medium with GlutaMax I and supplemented with 10% FBS, 100 U/ml penicillin and 100 μg/ml streptomycin, 1 mM MEM sodium pyruvate, and MEM non-essential amino acids (1×). The neuroblastoma cell line SH-SY5Y endogenously expressing the NPY Y2 receptor, was provided by Dr. Paolo Paganetti (Novartis, Basel, Switzerland). Cells were cultured at 37° C. and 5% CO2 in MEM/Ham's F12 with GlutaMax I and supplemented with 10% FBS, 100 U/ml penicillin and 100 μg/ml streptomycin, 1 mM MEM sodium pyruvate, and MEM non-essential amino acids (1×).
Binding affinities of the compounds were assessed using sections of cell membrane pellets of SK-N-MC for NPY Y1 or SH-SY5Y for NPY Y2. Briefly, membrane pellets were prepared and stored at −80° C., and receptor autoradiography was performed on 20-μm thick cryostat sections of the membrane pellets, mounted on microscope slides and stored at −20° C. The slides were preincubated in Krebs-Ringer solution (NaCl 119 mM, KCl 3.2 mM, KH2PO4 1.19 mM, MgSO4 1.19 mM, NaHCO3 25 mM, CaCl2 2.53 mM, D-glucose 10 mM; pH 7.4) for 60 min at room temperature. Then, they were incubated for 120 min in Krebs-Ringer solution containing 0.1% BSA, 0.05% bacitracin, and 10 000 cpm/100 μl of the ^125I-labeled human PYY alone or with increasing concentrations ranging from 0.1 nM up to 1000 nM of non-labeled hPYY, as control, or with the compounds to be tested. After the incubation, the slides were washed two times for 5 min and then rinsed four times in ice-cold preincubation solution. After drying, the slides were exposed to Kodak films Biomax MR® for 7 days. IC50 values were calculated after quantification of the data using a computer-assisted image processing system. Tissue standards containing known amount of isotope, cross-calibrated to tissue-equivalent ligand concentrations were used for quantification.
The DOTA-free and DOTA-coupled analogs listed in Table 1 were analyzed in receptor autoradiography experiments for NPY Y1 and Y2 receptor binding affinities on SK-N-MC cells endogenously expressing Y1 and SH-SY5Y cells endogenously expressing Y2, respectively. Pharmacological displacement experiment using SK-N-MC cell membrane pellet sections for Peptides Nos. 9, 10 and 11 are shown in FIG. 2. The addition of two DOTA moieties to the homodimeric analogs decreases the Y1 binding affinity up to 2-30 fold.
For orientation: In a radioligand displacement assay an active substance lowers the binding of a labelled ligand.

In test [2] the target is T1, NPY Y1. In words: Adenylate cyclase activity (forskolin-stimulated cAMP accumulation) flashplate assay in SK-N-MC cells. The class given is cell-based. The conditions noted are these: for Activity Y1-cAMP (SK-N-MC): agonistic or antagonistic property: SK-N-MC cells. How it is done: Cells were incubated for 30 min with 10 μM forskolin in the presence of [Leu^31-Pro^34]-PYY (LP-PYY) at concentrations ranging between 0.01 nM and 20 μM alone ([…]) or with 10 μM forskolin in the presence of LP-PYY at concentrations ranging between 0.01 nM and 20 μM supplemented with a fixed concentration of 20 μM of the analog Peptide No. 11 (▪). […] Peptide No. 11 given alone has no effect on the accumulation of forskolin-stimulated cAMP (▴).
Adenylate cyclase activity with respect to NPY Y1 was determined in SK-N-MC cells using the adenylate cyclase activation flashplate assay (SMP004) from PerkinElmer. SK-N-MC cells were seeded in 96-well culture plates at 25,000 cells/well and cultured for 48 h at 37° C. and 5% CO2. Culture medium was then removed from the wells and fresh medium (100 μL) containing 0.5 mM 3-isobutyl-1-methylxanthine (IBMX) was added to each well. Cells were incubated for 30 min at 37° C. Medium was then removed and replaced with fresh medium containing 0.5 mM IBMX, with or without 10 μM forskolin and various concentrations of the peptides to be analyzed. Cells were incubated for 30 min at 37° C. After removal of the medium, cells were lysed and cAMP accumulation was determined using the SMP004 kit from PerkinElmer.
Because the addition of a DOTA moiety can change the functional characteristics of a compound, as recently shown in the somatostatin receptor field for sst3, compounds having a high or moderate Y1 affinity were analyzed in an adenylate cyclase activity assay for their agonistic or antagonistic properties. […] Given alone at a high concentration of 20 μM, they were unable to inhibit forskolin-stimulated cAMP accumulation but they efficiently antagonized the agonistic effect of 100 nM [Leu^31, Pro^34]-hPYY. […] The conclusion is that the DOTA-conjugated compound, i.e. Peptide No. 11, with its high binding affinity and its antagonist property represents an excellent candidate for in vivo tumor targeting.
Background: Changes in cAMP serve as a functional read-out for many G protein-coupled receptors.

“Also recorded” adds a separate entry of the source. Bridge positions count the residues as written; N and C are the ends. Square brackets hold non-standard residues; d marks the D form. Peptide text beside a SMILES is read from it. I, II: the chains in the order shown. * marks the point of attachment. DOTA = O=C(O)CN1CCN(CC(=O)O)CCN(CC(=O)*)CCN(CC(=O)O)CC1; Nle = CCCC[C@H](N)C(=O)O

Regarding `CCCC[C@H](NC(=O)[C@H](CCCNC(=N)N)NC(=O)[C@H](Cc1c[nH]c2ccccc12)NC(=O)[C@H](CSSC[C@H](NC(=O)[C@@H]1CCCN1C(=O)[C@H](CC(N)=O)NC(=O)[C@@H](N)[C@@H](C)CC)C(=O)N[C@@H](Cc1c[nH]c2ccccc12)C(=O)N[C@@H](CCCNC(=N)N)C(=O)N[C@@H](CCCC)C(=O)N[C@@H](CCCNC(=N)N)C(=O)N[C@@H](Cc1ccc(O)cc1)C(N)=O)NC(=O)[C@@H]1CCCN1C(=O)[C@H](CCCCNC(=O)CN1CCN(CC(=O)O)CCN(CC(=O)O)CCN(CC(=O)O)CC1)NC(=O)[C@@H](N)[C@@H](C)CC)C(=O)N[C@@H](CCCNC(=N)N)C(=O)N[C@@H](Cc1ccc(O)cc1)C(N)=O` [Peptide No. 11] (I: H-IK(DOTA)PCWR[Nle]RY-NH2 / II: H-INPCWR[Nle]RY-NH2; disulfide I:4-II:4), on NPY Y1 [1], the “Displacement of 125I-hPYY (FIG. 2)” value was “high affinity displacements” and the IC50 turned out to be 13 nM. The “Activity Y1-cAMP (SK-N-MC): agonistic or antagonistic property” value (shortened to “Activity Y1-cAMP (SK-N-MC)”) at NPY Y1 [2] (10 μM forskolin) is on record as “Antagonist”. Moreover, the “Effect on forskolin-stimulated cAMP accumulation, given alone” value on NPY Y1 [2] (peptide alone, 20 μM, 10 μM forskolin) is recorded as “no effect”. The “Effect on dose response curve of [Leu31,Pro34]-PYY (LP-PYY)” value at NPY Y1 [2] (peptide fixed at 20 μM, with increasing LP-PYY, 10 μM forskolin, 30 min) was “shifts the dose response curve of LP-PYY to the right; also recorded: shift the dose response curve of [Leu^31, Pro^34]-hPYY to the right”.

As to `CC[C@H](C)[C@H](NC(=O)CN1CCN(CC(=O)O)CCN(CC(=O)O)CCN(CC(=O)O)CC1)C(=O)N[C@@H](CC(N)=O)C(=O)N1CCC[C@H]1C(=O)N[C@@H](CSSC[C@H](NC(=O)[C@@H]1CCCN1C(=O)[C@H](CC(N)=O)NC(=O)[C@@H](NC(=O)CN1CCN(CC(=O)O)CCN(CC(=O)O)CCN(CC(=O)O)CC1)[C@@H](C)CC)C(=O)N[C@@H](Cc1ccc(O)cc1)C(=O)N[C@@H](CCCNC(=N)N)C(=O)N[C@@H](CC(C)C)C(=O)N[C@@H](CCCNC(=N)N)C(=O)N[C@@H](Cc1ccc(O)cc1)C(N)=O)C(=O)N[C@@H](Cc1ccc(O)cc1)C(=O)N[C@@H](CCCNC(=N)N)C(=O)N[C@@H](CC(C)C)C(=O)N[C@@H](CCCNC(=N)N)C(=O)N[C@@H](Cc1ccc(O)cc1)C(N)=O` [compound 2] (I: {DOTA}-INPCYRLRY-NH2 / II: {DOTA}-INPCYRLRY-NH2; disulfide I:4-II:4), at NPY Y1 [1], the half-maximal inhibitory concentration (IC50) is 143 ± 37 nM. The “Activity Y1-cAMP (SK-N-MC)” value on NPY Y1 [2] (10 μM forskolin) was “Antagonist”.

For the compound `CCCC[C@H](NC(=O)[C@H](CCCNC(=N)N)NC(=O)[C@H](Cc1c[nH]c2ccccc12)NC(=O)[C@H](CSSC[C@H](NC(=O)[C@@H]1CCCN1C(=O)[C@H](CC(N)=O)NC(=O)[C@@H](NC(=O)CN1CCN(CC(=O)O)CCN(CC(=O)O)CCN(CC(=O)O)CC1)[C@@H](C)CC)C(=O)N[C@@H](Cc1c[nH]c2ccccc12)C(=O)N[C@@H](CCCNC(=N)N)C(=O)N[C@@H](CCCC)C(=O)N[C@@H](CCCNC(=N)N)C(=O)N[C@@H](Cc1ccc(O)cc1)C(N)=O)NC(=O)[C@@H]1CCCN1C(=O)[C@H](CC(N)=O)NC(=O)[C@@H](NC(=O)CN1CCN(CC(=O)O)CCN(CC(=O)O)CCN(CC(=O)O)CC1)[C@@H](C)CC)C(=O)N[C@@H](CCCNC(=N)N)C(=O)N[C@@H](Cc1ccc(O)cc1)C(N)=O` [compound 4] (I: {DOTA}-INPCWR[Nle]RY-NH2 / II: {DOTA}-INPCWR[Nle]RY-NH2; disulfide I:4-II:4), the IC50 at NPY Y1 [1] is 294 ± 33 nM. The “Activity Y1-cAMP (SK-N-MC)” value on NPY Y1 [2] (10 μM forskolin) was “Antagonist”.

As for “[Leu^31, Pro^34]-hPYY [reference compound]”, in the test with NPY Y1 [2] (applied at 20 μM and 100 nM), the “Inhibition of forskolin-stimulated cAMP accumulation (agonist control)” value is reported as “efficiently inhibited forskolin-stimulated cAMP accumulation”.

As to “hPYY: non-labeled human peptide YY, used as control in binding competition [reference compound]”, the “Displacement of 125I-hPYY (FIG. 2)” value with NPY Y1 [1] is “high affinity displacements”.

The term IC50 denotes the point on the concentration scale where inhibition reaches its midpoint.

Source of the values: US20120259092A1, “NPY ANTAGONISTS” (priority 2011, published 2012).
